How the values were obtained:
UBA3 = assay: Western blot of UBA3 expression in RAW264.7 cells; type: cell-based, mouse; conditions: siRNA-transfected RAW264.7, FIG. 5B
Method: (§1) FIGS. 5A-5D are the data respectively depicting the effect of sRANKL on the neddylation pathway and the knockdown effect of UBA3 siRNA on macrophages during osteoclast differentiation according to example 4 of the present disclosure. FIG. 5A: RAW264.7 mouse macrophages were seeded on wells and were treated with various concentrations of sRANKL (0-100 ng/ml). After 72 hours' incubation, the cells were lysed and subjected to Western blotting analysis using specific antibodies in neddylation pathway. FIG. 5B: RAW264.7 mouse macrophages were seeded on wells and transfected with UBA3 or scrambled siRNA. After culture, the transfected cells were harvested, lysed, and further analyzed by Western Blot for checking NEDD8, UBA3, and APPBP1 expressions. FIGS. 5C and 5D: the UBA3 or scrambled siRNA transfected RAW264.7 cells were further treated with sRANKL (50 ng/ml), after 3-day induction, the morphological change of macrophages to TRAP-stained positive giant osteoclasts were photographed and further counted. Data are expressed as mean±SD where *p<0.05.
The RAW264.7 cells were starved with serum-free medium for six hours and then treated with the specified treatments. At indicated time points, the cells were washed with cold phosphate-buffered saline (PBS) and lysed in RIPA buffer containing complete protease inhibitor cocktail (Roche). […]

RAW264.7 cells = assay: UBA3 knockdown on osteoclast differentiation, count of TRAP-positive giant osteoclasts; type: cell-based, mouse; conditions: siRNA-transfected RAW264.7, sRANKL 50 ng/ml, 3 days, FIG. 5C-5D
Method: as §1, with “*p<0.05. […]” for “*p<0.05.”
Six hours' post-transfection, the cells were treated with sRANKL (50 ng/ml). Three days later, the effect of UBA3 knockdown on mature giant osteoclast formation on wells was photographed and counted. […]

| Substance | knockdown of UBA3 expression (UBA3) | differentiating number of giant osteoclasts (RAW264.7 cells) |
| --- | --- | --- |
| UBA3 siRNA 2: siRNA targeting UBA3, sense SEQ ID NO: 3, anti-sense SEQ ID NO: 4 (sense GGAUCAAUGGAAUGCUGAUTT; antisense TTCCUAGUUACCUUACGACUA; chemistry not given here; one strand is listed 3' to 5') | can knockdown the expression of UBA3 | significantly diminished the differentiating number of giant osteoclasts |
| UBA3 siRNA 3: siRNA targeting UBA3, sense SEQ ID NO: 5, anti-sense SEQ ID NO: 6 (sense CCAAGCUCCAUUGUACCUUTT; antisense TTGGUUCGAGGUAACAUGGAA; chemistry not given here; one strand is listed 3' to 5') | can knockdown the expression of UBA3 | significantly diminished the differentiating number of giant osteoclasts |
